# Literature values, collected in article PMC3975045 (ACS medicinal chemistry letters, 2013).
# Test system: OX1 and OX2
substance,measurement,value
"[Ala^11,D-Leu^15]orexin B",selectivity for OX2 over OX1,400 fold
